Results: patent US20110117171A1, “IMPLANTABLE BONE GRAFT MATERIALS” (AFFINERGY, INC., priority 2009, published 2011)
Ends that are not written are not given here. spacer = not defined here

Assays:
human MSCs [1] = experiment: Capture of MSCs from a mixed cell population with peptide on CELLECTION magnetic beads; format: cell-based; details: starting mixture 38% IM9, 56% U937, 4% MSC; FIG. 17C
Text: In this experiment, biotinylated cell binding peptide, SEQ ID NO: 16, was attached to CELLECTION magnetic beads. The CELLECTION beads have streptavidin coupled to a magnetic particle through a DNA linker. Three different cell types, human MSCs, IM-9, and U937 cells were differentially labeled with […] dye and mixed in a ratio such that the MSCs represented ˜4% of the starting cell mixture (the percentage of each cell type in the starting mixture was 38% IM9, 56% U937, and 4% MSC). The cell binding peptide, SEQ ID NO: 16, was biotinylated as described herein at Example 2, as was a general cell binding peptide for use as a control peptide in the experiment. Magnetic particles with no peptide attached, as well as magnetic beads having attached either the cell binding peptide, SEQ ID NO: 16, or the control peptide were tested for their ability to capture human MSCs. The starting cell mixture was incubated with magnetic beads having either attached peptide or no peptide, the beads were washed, and the captured cells were released from the beads by DNase treatment. The cells were measured by flow cytometry histograms shown in 17A-17C. The magnetic beads without peptide captured little or no cells (FIG. 17B). The magnetic beads with attached cell binding peptide SEQ ID NO: 16 captured a cell population that was 96% MSCs (FIG. 17C).

[2] = test system: MSCs captured from bone marrow; experiment: Adipocyte differentiation of captured MSCs (Oil Red O); format: cell-based, human; details: 21 days in adipocyte differentiation medium, FIG. 20 A/B
Protocol: Adipocyte differentiation. After capture of MSCs using cell binding peptide SEQ ID NO: 4 with the […] magnetic system according to Example 6, the ability of the captured cells to differentiate into an adipocyte lineage was examined. The MSCs present in the […] column eluants (see Example 6) were cultured for 21 days in complete medium (DMEM, 10% FBS, 100 units/mL penicillin, 100 μg/mL streptomycin, and 2 mM glutamine) supplemented with 0.5 mM isobutyl methylxanthine, 1 μM dexamethasone, 10 μM insulin, 200 μM indomethacin, and 1% antibiotic/antimycotic. Following the 21 day incubation, the cells were fixed in 4% paraformaldehyde in PBS for 15 minutes, washed in 60% isopropanol for 5 minutes, and stained with Oil Red O (SIGMA) for 10 minutes to determine the extent of adipogenesis (see FIG. 20, panels A (undifferentiated MSCs) and panel B (adipocyte differentiated MSCs)). The image of the adipose differentiated cells (FIG. 20, panel B) contains a larger magnification inset where the lipid vacuoles are clearly visible.

[3] = test system: MSCs captured from bone marrow; experiment: Chondrocyte differentiation of captured MSCs (aggrecan immunostaining); format: cell-based, human; details: 24 days in CHONDRODIFF medium, FIG. 21
Protocol: Chondrocyte differentiation. To examine chondrocyte differentiation, the MSCs present in the […] column eluants (see Example 6) were pelleted by centrifugation at 150×g for 5 minutes. Cells were washed once with 1 ml MACS NH CHONDRODIFF Medium without disturbing the pellet. Cells were spun again and 1 mL CHONDRODIFF Medium was added to each pellet. Every third day, medium was aspirated and replaced with fresh pre-warmed medium. After 24 days in culture, cells exposed to CHONDRODIFF medium formed cartilage plugs or nodules, whereas control cells formed only loose or small nodules. Cells were washed once with PBS and fixed in neutral buffered formalin overnight. Sections were embedded in paraffin and sectioned at 5 microns. Sections were examined by hemotoxylin and eosin staining (data not shown). Sections were further examined by immunostaining for aggrecan, a major structural component of cartilage. In FIG. 21, sections from the periphery (panels A and B) or center (panels C and D) were incubated with an antibody against aggrecan (ABCAM) (panels B and D) or with secondary detection reagents only as a control (panels A and C), then counterstained with DAPI to reveal cell nuclei. […] Control images of captured cells grown in the absence of differentiation medium could not be taken due to the small and loose nature of nodules.

[4] = test system: MSCs directly from bone marrow aspirate; experiment: Capture of MSCs from bone marrow aspirate, colony forming units after 14 days; format: cell-based, human; details: streptavidin-coated MILTENYI beads, FIG. 18
Protocol: (§1) This experiment was performed to examine the ability of cell binding peptide SEQ ID NO: 4 to capture MSCs directly from bone marrow aspirate in comparison to two separate antibodies against the CD105 I antigen (CD105) and the MSCA-1 stem cell antigen (MSCA-1). This experiment employed biotinylated peptides with streptavidin-coated […] magnetic beads. The peptides were biotinylated as described herein at Example 2. […] For the antibody capture experiment, magnetic beads having covalently attached CD105 or MSCA-1 antibody were employed ([…]). Prior to incubation with the peptides and antibodies, bone marrow aspirate (BMA) was mixed with 5 volumes of 10 mM ammonium chloride for 1-2 min at room temperature to lyse red blood cells. The lysate was centrifuged for 5 min at 300×g and the supernatant discarded. The cell pellet was washed with wash buffer (PBS+0.5% bovine serum albumin+0.5 mM EDTA) and cells were resuspended in […] peptide at a concentration of 10^8 per mL. For peptide binding studies, the cell suspension was incubated with the biotinylated peptides for 30 min at 4° C. to allow for binding. After incubation, cells were spun down at 300×g for 5 min, and peptide solution was aspirated. Cells were then rinsed twice with wash buffer, with centrifugation between washes. […] Colony forming units (CFUs) were counted after 14 days in culture. […]

human ASCs = experiment: Biotinylated peptide cell binding specificity by flow cytometry (Neutravidin-PE); details: 30 min at 4° C., FIG. 15
Text: (§2) The synthetic biotinylated cell binding peptide SEQ ID NO: 4 was examined for its ability to specifically bind MSCs compared to a number of other cells types including adipose-derived mesenchymal stem cells (ASCs), dermal fibroblasts, rodent MSCs, red blood cells, monocytes, lymphocytes and granulocytes. The cell binding peptide was biotinylated as described herein at Example 2. Cultured cells of each type were either purchased (ASCs and dermal fibroblasts) or isolated from rodent bone marrow (rodent MSCs) or human blood. Cells were first harvested and resuspended at 10^6/mL in PBS+2% fetal bovine serum (FBS). An aliquot of cells (50 μL) was incubated in 50 μL of peptide solution (25 μM in PBS+FBS) for 30 min at 4° C. Cells were then washed twice in PBS+FBS with 300×g centrifugation for 5 min between washes. Fluorescently-tagged neutravidin (Neutravidin-PE from INVITROGEN) was then added to the cells to label biotinylated peptide bound to cells. Neutravidin-PE was diluted 1:250 from stock and applied at 50 μL to cells. Cells were then washed in PBS+FBS, and acquired on a BD […]. Peptide reactivity was then measured as percent positivity relative to Neutravidin-PE staining without the addition of biotinylated peptide.

human MSCs [5] = experiment: as above; details: 30 min at 4° C., FIG. 15
Text: as §2

[6] = test system: MSCs captured from bone marrow aspirate; experiment: Immunoreactivity of captured cells for surface antigens; format: cell-based, human; details: CD29(+), CD44(+), CD73(+), CD166(+), CD90(+), CD45(−), CD34(−)
Protocol: as §1

dermal fibroblasts = experiment: Biotinylated peptide cell binding specificity by flow cytometry (Neutravidin-PE); parameters: species or system human; details: 30 min at 4° C., FIG. 15
Text: as §2

[7] = test system: MSCs captured from bone marrow; experiment: Osteoblast differentiation of captured MSCs (Alizarin Red S); format: cell-based, human; details: 14 days in osteoblast differentiation medium, FIG. 20 C/D
Protocol: Osteoblast differentiation. For osteogenic differentiation, the MSCs present in the […] column eluants (see Example 6) were cultured for 14 days in complete medium supplemented with 0.1 μM dexamethasone, 50 μM ascorbate-2-phosphate, 10 mM β-glycerophosphate, and 1% antibiotic/antimycotic. Calcium mineralization was measured by Alizarin Red S (SIGMA) staining to reveal mineralizing osteoblasts (see FIG. 20, panel C (undifferentiated MSCs) and panel D (osteoblast differentiated MSCs)).

[8] = test system: human MSCs from bone marrow aspirate; experiment: Capture of cultured MSCs with biotinylated peptide on […] streptavidin microbeads in LS columns; format: cell-based; details: 160,000 cultured human MSCs, peptide 20 μM on streptavidin microbeads, FIG. 16
Protocol: In this experiment the ability of the biotinylated cell binding peptide SEQ ID NO: 4 to capture human MSCs from a homogeneous cultured cell population was examined. The cell binding peptide SEQ ID NO: 4 was biotinylated as described herein at Example 2. The cell binding peptide SEQ ID NO: 4, and a non-binding control peptide, were added to separate 300 μl volumes of […] BIOTEC Streptavidin microbeads at a concentration of 20 μM. These beads are made from iron filings, coated with a dextran coating which is functionalized with streptavidin moieties. Peptide was incubated with beads for 45 min on ice. The 300 μl of peptide coated microbeads were added to pre-equilibrated LS columns outside of the magnetic field to evenly distribute the magnetic beads throughout the columns. Columns were then placed into a magnetic field, and excess peptide was washed away with buffer while retaining the peptide coated microbeads. Cultured and expanded human MSCs from bone marrow aspirate (160,000 cells; LONZA) were added to each LS column and allowed to pass through by gravity flow. Flowthrough was collected and cycled through the columns 5 times, after which the columns were washed with 5 ml buffer. […] The collected flowthrough with 5 ml wash and eluted cells were spun down, resuspended in a smaller volume, and counted by hemacytometer (see FIG. 16). […]

Sequence | MSCs in captured cell population (human MSCs [1]) [%] | adipogenesis of captured MSCs [2] | aggrecan in nodules formed from captured MSCs [3] | MSC capture (CFUs after 14 days in culture) [4] | binding to human ASCs (percent positivity relative to Neutravidin-PE staining) (human ASCs) | binding to human MSCs (percent positivity relative to Neutravidin-PE staining) (human MSCs [5]) | immunoreactivity of isolated cells compared with CD105 isolated cells [6] | binding to dermal fibroblasts (percent positivity relative to Neutravidin-PE staining) (dermal fibroblasts) | osteogenic differentiation of captured MSCs [7] | capture of the MSCs [8]
SSFRFGPLGTWNYPSTDNAE (also: biotin, position not given here, on magnetic beads) [SEQ ID NO: 16, tested biotinylated on CELLECTION magnetic beads] | 96 | – | – | – | – | – | – | – | – | –
SSFWDVCQGDGTCYGGGSR (SSFWDVCQGDGTCYGGGSR-{spacer-biotin}; cysteine pairing not given here; reading uncertain; also: C-terminal spacer not given here) [SEQ ID NO: 4, tested biotinylated with a C-terminal spacer] | – | adipogenesis pathway remains intact | aggrecan could be detected | as efficient as capture by either of the CD105 or MSCA-1 antibodies | high binding | high binding | no changes were observed | high binding | osteogenic pathway remains intact | approximately 70%
